The text below walks through data of US6703397B2, “Pyrimidinyl methyl indole derivatives with antibacterial activity” (Basilea Pharmaceutica AG, priority 2000, dated 2004).

pIC50: −log10 of the molar value. Values after ≈ are worked out from the molar mass of the structure shown. Where two headings read alike, the source gives them in different places.

Test [1] deals with Streptococcus pneumoniae ATCC 49619. The experiment in a line: MIC against Streptococcus pneumoniae ATCC 49619 (trimethoprim- and penicillin-susceptible reference strain). It is filed as cell-based. How it is done: The following Tables 1 and 2 contain inhibitory concentrations determined in the above test for representative members of the class of compound defined by formula I. The following microorganisms were tested: Col. 1: […]

In test [2] the test system is Streptococcus pneumoniae 1/1. The test can be described thus: MIC against Streptococcus pneumoniae 1/1 (trimethoprim- and penicillin-resistant clinical isolate, serotype 6). It is filed as cell-based. The method, then:
The following Tables 1 and 2 contain inhibitory concentrations determined in the above test for representative members of the class of compound defined by formula I. The following microorganisms were tested: […]
Col. 2: MIC Spn1/1; μg/ml (Streptococcus pneumoniae 1/1, Trimethoprim- and Penicillin-resistant, Serotype 6; clinical isolate, stored at −80° C.). Lit.: H. Locher et al., Can. J. Infect. Dis. 6: Suppl. C, p 469C.

The target of test [3] is purified DHFR of strain Spn1/1 (Streptococcus pneumoniae serotype 4, UniProt Q54801, E20D/I100L/L135F/P70S/Q81H). The experiment in a line: biochemical. From the text: Col. 3: DHFR Spn1/1; μM)—the IC50-values in μM against the purified DHFR of the above strain Spn1/1; of Streptococcus pneumoniae.
Where [4] appears, read: ATCC49619, Streptococcus pneumoniae ATCC 49619, trimethoprim- and penicillin-susceptible, read-out: Spn 49619 MIC.
Where [5] appears, read: Streptococcus pneumoniae 1/1, trimethoprim- and penicillin-resistant, serotype 6, read-out: Spn 1/1 MIC.

Sequence of purified DHFR of strain Spn1/1 (Q54801 whole entry E20D/P70S/Q81H/I100L/L135F): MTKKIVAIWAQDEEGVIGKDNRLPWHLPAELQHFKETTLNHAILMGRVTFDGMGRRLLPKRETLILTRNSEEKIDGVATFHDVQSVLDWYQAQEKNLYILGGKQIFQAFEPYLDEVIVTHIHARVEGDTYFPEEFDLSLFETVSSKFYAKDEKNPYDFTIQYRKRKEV

On to `CCn1cc(CN2CCOCC2)c2c(OS(=O)(=O)CC3CC3)cc(Cc3cnc(N)nc3N)cc21` [Example 10e, Cyclopropyl-methanesulfonic acid 6-(2,4-diamino-pyrimidin-5-ylmethyl)-1-ethyl-3-morpholin-4-ylmethyl-1H-indol-4-yl ester], for which the results for the MIC in test [1] (setting [4]) and in test [2] (setting [5]) were 0.125 µg/mL (≈ 0.25 µM) and 4 µg/mL (≈ 7.99 µM), respectively. The pIC50 in test [3] is 8.32.
Turning to `CCn1cc(C=O)c2c(OS(=O)(=O)C(C)C)cc(Cc3cnc(N)nc3N)cc21` [Example 11, Propane-2-sulfonic acid 6-(2,4-diamino-pyrimidin-5-ylmethyl)-1-ethyl-3-formyl-1H-indol-4-yl ester], the MIC in test [1] (Streptococcus pneumoniae, ATCC49619, read-out: Spn 49619 MIC) was 0.25 µg/mL (≈ 0.599 µM); in test [2] (Streptococcus pneumoniae, 1/1, read-out: Spn 1/1 MIC) it was above 8 µg/mL. The same compound had a pIC50 in test [3] of 7.03.
With `CCOc1cc(Cc2cnc(N)nc2N)cc2c1cc(C)n2CC` [Example 15a, 5-(4-Ethoxy-1-ethyl-2-methyl-1H-indol-6-ylmethyl)-pyrimidine-2,4-diamine], the MIC in test [1] (setting [4]) came to 0.25 µg/mL (≈ 0.768 µM); in test [2] (setting [5]) it was 8 µg/mL (≈ 24.6 µM). The pIC50 in test [3] was 7.25.
The like results for `CCOc1cc(Cc2cnc(N)nc2N)cc2c1ccn2S(=O)(=O)C(C)C` [Example 2d, 5-[4-Ethoxy-1-(propane-2-sulfonyl)-1H-indol-6-ylmethyl]-pyrimidine-2,4-diamine] were, in that order, 0.5 µg/mL (≈ 1.28 µM), above 8 µg/mL and 6.48.
For `CCn1cc(C)c2c(OS(=O)(=O)CC3CC3)cc(Cc3cnc(N)nc3N)cc21` [Example 12b, Cyclopropyl-methanesulfonic acid 6-(2,4-diamino-pyrimidin-5-ylmethyl)-1-ethyl-3-methyl-1H-indol-4-yl ester] the same measures were at most 0.015 µg/mL, 4 µg/mL (≈ 9.63 µM) and 8.43.
For `CCn1ccc2c(OCC3CC3)cc(Cc3cnc(N)nc3N)cc21` [Example 7a, 5-(4-Cyclopropylmethoxy-1-ethyl-1H-indol-6-ylmethyl)-pyrimidine-2,4-diamine] the same measures were 0.125 µg/mL (≈ 0.37 µM), 4 µg/mL (≈ 11.9 µM) and 7.68.
For `CCn1cc(CN2CC(C)OC(C)C2)c2c(OS(=O)(=O)C(C)C)cc(Cc3cnc(N)nc3N)cc21` (mixture of isomers) [Example 10d, (cis/trans)-Propane-2-sulfonic acid 6-(2,4-diamino-pyrimidin-5-ylmethyl)-3-(2,6-dimethyl-morpholin-4-ylmethyl)-1-ethyl-1H-indol-4-yl ester], the MIC worked out at 1 µg/mL in test [1] (setting [4]) and 8 µg/mL in test [2] (setting [5]). In test [3], this compound showed a pIC50 of 6.60.
Regarding `CCOc1cc(Cc2cnc(N)nc2N)cc2c1ccn2CC` [Example 3, 5-(4-Ethoxy-1-ethyl-1H-indol-6-ylmethyl)-pyrimidine-2,4-diamine], the MIC in test [1] (setting [4]) turned out to be 0.125 µg/mL (≈ 0.401 µM); in test [2] (setting [5]), 4 µg/mL (≈ 12.8 µM). Also, in test [3], the pIC50 was 7.62.
As for `CCC(C)S(=O)(=O)Oc1cc(Cc2cnc(N)nc2N)cc2c1cc(C)n2CC` (racemic) [Example 15c, rac-Butane-2-sulfonic acid 6-(2,4-diamino-pyrimidin-5-ylmethyl)-1-ethyl-2-methyl-1H-indol-4-yl ester], the figures for the MIC in test [1] (setting [4]) and in test [2] (setting [5]) were 0.03 µg/mL (≈ 0.0719 µM) and 2 µg/mL (≈ 4.79 µM), respectively. The compound also gave a pIC50 in test [3] of 8.06.
For `CCn1cc(CN2CCOCC2)c2c(OCC3CC3)cc(Cc3cnc(N)nc3N)cc21` [Example 10a, 5-(4-Cyclopropylmethoxy-1-ethyl-3-morpholin-4-ylmethyl-1H-indol-6-ylmethyl)-pyrimidine-2,4-diamine] the same measures were 0.25 µg/mL (≈ 0.573 µM), 8 µg/mL (≈ 18.3 µM) and 6.74.
The like results for `CCn1ccc2c(OCC3OCCO3)cc(Cc3cnc(N)nc3N)cc21` [Example 7e, 5-[4-([1,3]Dioxolan-2-ylmethoxy)-1-ethyl-1H-indol-6-ylmethyl]-pyrimidine-2,4-diamine] were, in that order, 1 µg/mL (≈ 2.71 µM), 8 µg/mL (≈ 21.7 µM) and 6.68.
The like results for `CCOc1cc(Cc2cnc(N)nc2N)cc2c1ccn2CC1CC1` [Example 2a, 5-(1-cyclopropylmethyl-4-ethoxy-1H-indol-6-ylmethyl)-pyrimidine-2,4-diamine] were, in that order, 0.5 µg/mL (≈ 1.48 µM), above 8 µg/mL and 6.96.
`CCn1cc(CN2CCSCC2)c2c(OS(=O)(=O)C(C)C)cc(Cc3cnc(N)nc3N)cc21` [Example 10c, Propane-2-sulfonic acid 6-(2,4-diamino-pyrimidin-5-ylmethyl)-1-ethyl-3-thiomorpholin-4-ylmethyl-1H-indol-4-yl ester]: the MIC in test [1] (setting [4]) turned out to be 1 µg/mL (≈ 1.98 µM); in test [2] (setting [5]), 4 µg/mL (≈ 7.93 µM). In test [3], this compound gave a pIC50 of 6.80.
Regarding `CCn1c(C)cc2c(OCC3CC3)cc(Cc3cnc(N)nc3N)cc21` [Example 15b, 5-(4-Cyclopropylmethoxy-1-ethyl-2-methyl-1H-indol-6-ylmethyl)-pyrimidine-2,4-diamine], the results for the MIC in test [1] (setting [4]) and in test [2] (setting [5]) were 0.5 µg/mL (≈ 1.42 µM) and 8 µg/mL (≈ 22.8 µM), respectively. Moreover, the pIC50 in test [3] is 7.70.
On to `CCOc1cc(Cc2cnc(N)nc2N)cc2c1ccn2C1CCCC1` [Example 2b, 5-(1-Cyclopentyl-4-ethoxy-1H-indol-6-ylmethyl)-pyrimidine-2,4-diamine], for which the MIC in test [1] (setting [4]) worked out at 0.5 µg/mL (≈ 1.42 µM); in test [2] (setting [5]), 8 µg/mL (≈ 22.8 µM). In test [3], this compound showed a pIC50 of 6.82.
The like results for `CCn1ccc2c(OCC3(C)CC3)cc(Cc3cnc(N)nc3N)cc21` [Example 7h, 5-[1-Ethyl-4-(1-methyl-cyclopropylmethoxy)-1H-indol-6-ylmethyl]-pyrimidine-2,4-diamine] were, in that order, 1 µg/mL (≈ 2.85 µM), 4 µg/mL (≈ 11.4 µM) and 7.82.
For `CCC(C)S(=O)(=O)Oc1cc(Cc2cnc(N)nc2N)cc2c1ccn2C` (racemic) [Example 5e, rac-Butane-2-sulfonic acid 6-(2,4-diamino-pyrimidin-5-ylmethyl)-1-methyl-1H-indol-4-yl ester] the same measures were 0.125 µg/mL (≈ 0.321 µM), 8 µg/mL (≈ 20.5 µM) and 7.89.
For the compound `CCn1cc(-c2cccc(OC)c2)c2c(OC)cc(Cc3cnc(N)nc3N)cc21` [Example 17b, 5-[1-Ethyl-4-methoxy-3-(3-methoxy-phenyl)-1H-indol-6-ylmethyl]-pyrimidine-2,4-diamine], the values for the MIC in test [1] (setting [4]) and in test [2] (setting [5]) were 0.5 µg/mL (≈ 1.24 µM) and 8 µg/mL (≈ 19.8 µM), respectively. The compound further showed a pIC50 in test [3] of 8.37.
For `CCOc1cc(Cc2cnc(N)nc2N)cc2c1c(-c1cccc(OC)c1)cn2CC` [Example 17a, 5-[4-Ethoxy-1-ethyl-3-(3-methoxy-phenyl)-1H-indol-6-ylmethyl]-pyrimidine-2,4-diamine], the MIC in test [1] (setting [4]) was found to be 0.5 µg/mL (≈ 1.2 µM); in test [2] (setting [5]), 8 µg/mL (≈ 19.2 µM). Also, the pIC50 in test [3] was 8.20.
In the case of “6-(2,4-Diamino-pyrimidin-5-ylmethyl)-4-ethoxy-indole-1-sulfonic Acid dimethylamide [Example 2e]”, the “Spn 49619 MIC” value in test [1] (Streptococcus pneumoniae ATCC 49619, trimethoprim- and penicillin-susceptible) was 0.06 µg/mL. Also, in test [2] (Streptococcus pneumoniae 1/1, trimethoprim- and penicillin-resistant, serotype 6), the “Spn 1/1 MIC” value is 4 µg/mL. In addition, the pIC50 in test [3] (purified DHFR of S. pneumoniae strain Spn1/1, read-out: Spn 1/1 IC50) is 6.96.
For the compound `CC(C)S(=O)(=O)Oc1cc(Cc2cnc(N)nc2N)cc2c1ccn2C` [Example 5c, Propane-2-sulfonic acid 6-(2,4-diamino-pyrimidin-5-ylmethyl)-1-methyl-1H-indol-4-yl ester], the MIC in test [1] (setting [4]) is 0.25 µg/mL (≈ 0.666 µM); in test [2] (setting [5]), 4 µg/mL (≈ 10.7 µM). Further, the pIC50 in test [3] is 7.08.
The like results for `CCn1ccc2c(OS(=O)(=O)N(C)C)cc(Cc3cnc(N)nc3N)cc21` [Example 9, Dimethyl-sulfamic Acid 6-(2,4-diamino-pyrimidin-5-ylmethyl)-1-ethyl-1H-indol-4-yl ester] were, in that order, 0.03 µg/mL (≈ 0.0768 µM), 2 µg/mL (≈ 5.12 µM) and 7.54.
The like results for `CC(C)Oc1cc(Cc2cnc(N)nc2N)cc2c1ccn2C` [Example 5b, 5-(4-Isopropoxy-1-methyl-1H-indol-6-ylmethyl)-pyrimidine-2,4-diamine] were, in that order, 0.5 µg/mL (≈ 1.61 µM), above 8 µg/mL and 6.77.
Turning to `CC(C)CS(=O)(=O)Oc1cc(Cc2cnc(N)nc2N)cc2c1ccn2C` [Example 5d, 2-Methyl-propane-1-sulfonic acid 6-(2,4-diamino-pyrimidin-5-ylmethyl)-1-methyl-1H-indol-4-yl ester], the results for the MIC in test [1] (setting [4]) and in test [2] (setting [5]) were 0.125 µg/mL (≈ 0.321 µM) and 4 µg/mL (≈ 10.3 µM), respectively. Besides, the pIC50 in test [3] was 7.44.
For `CCOc1cc(Cc2cnc(N)nc2N)cc2c1ccn2Cc1ccccc1` [Example 2c, 5-(1-Benzyl-4-ethoxy-1H-indol-6-ylmethyl)-pyrimidine-2,4-diamine] the same measures were 2 µg/mL (≈ 5.36 µM), above 8 µg/mL and 6.34.
Consider `CCn1cc(Br)c2c(OCC3CC3)cc(Cc3cnc(N)nc3N)cc21` [Example 13, 5-(3-Bromo-4-cyclopropylmethoxy-1-ethyl-1H-indol-6-ylmethyl)-pyrimidine-2,4-diamine], for which the values for the MIC in test [1] (setting [4]) and in test [2] (setting [5]) were 0.125 µg/mL (≈ 0.3 µM) and 4 µg/mL (≈ 9.61 µM), respectively. Also, the pIC50 in test [3] was 7.38.
In the case of `COc1cc(Cc2cnc(N)nc2N)cc(OC)c1OC` [Trimethoprim, reference compound], the MIC in test [1] (setting [4]) was 4 µg/mL (≈ 13.8 µM); in test [2] (setting [5]), above 32 µg/mL.
